We go through 21 compounds from patent US20210395239A1 (Hoffmann-La Roche Inc., priority 2018, published 2021).

SMILES strings stand for the structures.

In the assay the target is T1, hTLR9 (Homo sapiens, UniProt Q9NR96).
T1 sequence (Q9NR96 26-1032): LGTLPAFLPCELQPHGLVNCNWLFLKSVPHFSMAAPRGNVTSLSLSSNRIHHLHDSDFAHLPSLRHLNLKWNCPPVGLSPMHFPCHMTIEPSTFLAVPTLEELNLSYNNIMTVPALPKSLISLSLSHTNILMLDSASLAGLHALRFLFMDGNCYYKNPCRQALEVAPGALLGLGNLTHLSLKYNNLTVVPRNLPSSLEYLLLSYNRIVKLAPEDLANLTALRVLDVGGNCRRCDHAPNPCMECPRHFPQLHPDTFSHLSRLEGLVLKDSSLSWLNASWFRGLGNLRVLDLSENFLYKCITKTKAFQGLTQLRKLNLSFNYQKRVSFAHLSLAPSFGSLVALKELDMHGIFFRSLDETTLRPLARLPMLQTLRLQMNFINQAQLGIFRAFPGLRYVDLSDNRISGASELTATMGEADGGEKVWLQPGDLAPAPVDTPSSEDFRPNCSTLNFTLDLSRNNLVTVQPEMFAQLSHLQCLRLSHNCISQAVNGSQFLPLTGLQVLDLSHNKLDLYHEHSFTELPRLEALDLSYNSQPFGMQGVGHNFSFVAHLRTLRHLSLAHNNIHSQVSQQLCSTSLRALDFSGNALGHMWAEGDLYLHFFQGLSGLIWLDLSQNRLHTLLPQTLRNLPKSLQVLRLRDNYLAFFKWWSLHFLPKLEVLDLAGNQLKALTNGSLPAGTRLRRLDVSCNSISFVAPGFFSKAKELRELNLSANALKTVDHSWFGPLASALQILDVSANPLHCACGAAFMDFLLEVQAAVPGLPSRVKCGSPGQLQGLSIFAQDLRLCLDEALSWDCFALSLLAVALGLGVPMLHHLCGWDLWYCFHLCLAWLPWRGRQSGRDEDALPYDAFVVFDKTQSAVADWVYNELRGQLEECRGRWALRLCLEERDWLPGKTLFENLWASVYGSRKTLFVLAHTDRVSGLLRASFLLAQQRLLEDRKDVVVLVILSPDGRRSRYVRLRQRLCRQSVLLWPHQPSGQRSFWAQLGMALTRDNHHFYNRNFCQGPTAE
Put plainly: HEK293-Blue-hTLR-9 cells assay (SEAP reporter, ODN2006 stimulation). The format is cell-based. On the set-up: host or cells: HEK293 (HEK-Blue hTLR9). Particulars: HEK293-Blue-hTLR9 cells, ODN2006, 20 hrs; read-out: HEK/hTLR9 IC50. A digest of the protocol: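 HEK293-Blue-hTLR9 cells with NF-κB/AP-1-driven SEAP reporter treated with serially diluted compound (1% DMSO final) plus ODN2006 for 20 h at 37 °C. Supernatant SEAP measured with QUANTI-Blue, 2 h at 37 °C, absorbance 620–655 nm; antagonism seen as reduced reporter signal.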
As for `C[C@@H]1CN(c2ccc(C#N)c3ncccc23)C[C@H](CN2CCN(c3nc(N4CCNCC4)ncc3F)CC2)O1` [Example 45, 5-[(2S,6R)-2-[[4-(5-fluoro-2-piperazin-1-yl-pyrimidin-4-yl)piperazin-1-yl]methyl]-6-methyl-morpholin-4-yl]quinoline-8-carbonitrile], the IC50 was determined as 188 nM.
With `Cc1nc(N2CCNCC2)nc(N2CCN(C[C@H]3CN(c4ccc(C#N)c5ncccc45)C[C@@H](C)O3)CC2)c1C` [Example 46, 5-[(2S,6R)-2-[[4-(5,6-dimethyl-2-piperazin-1-yl-pyrimidin-4-yl)piperazin-1-yl]methyl]-6-methyl-morpholin-4-yl]quinoline-8-carbonitrile] the figure was 157 nM; with `Cc1cc(N2CCN(C[C@H]3CN(c4ccc(C#N)c5ncccc45)C[C@@H](C)O3)CC2)nc(N2CCNCC2)n1` [Example 47, 5-[(2R,6S)-2-methyl-6-[[4-(6-methyl-2-piperazin-1-yl-pyrimidin-4-yl)piperazin-1-yl]methyl]morpholin-4-yl]quinoline-8-carbonitrile], 67 nM.
Then `COc1cnc(N2CCNCC2)nc1N1CCN(C[C@H]2CN(c3ccc(C#N)c4ncccc34)C[C@@H](C)O2)CC1` [Example 48, 5-[(2S,6R)-2-[[4-(5-methoxy-2-piperazin-1-yl-pyrimidin-4-yl)piperazin-1-yl]methyl]-6-methyl-morpholin-4-yl]quinoline-8-carbonitrile], with 121 nM.
For the compound `C[C@@H]1CN(c2ccc(C#N)c3ncccc23)C[C@H](CN2CCN(c3nc(N4CCNCC4)nc4ccccc34)CC2)O1` [Example 49, 5-[(2R,6S)-2-methyl-6-[[4-(2-piperazin-1-ylquinazolin-4-yl)piperazin-1-yl]methyl]morpholin-4-yl]quinoline-8-carbonitrile], the IC50 was 146 nM.
Consider `C[C@@H]1CN(c2ccc(C#N)c3ncccc23)C[C@H](CN2CCN(c3nc(N4CCNCC4)ncc3C#N)CC2)O1` [Example 50, 5-[(2S,6R)-2-[[4-(5-cyano-2-piperazin-1-yl-pyrimidin-4-yl)piperazin-1-yl]methyl]-6-methyl-morpholin-4-yl]quinoline-8-carbonitrile], for which the IC50 stood at 126 nM.
`C[C@@H]1CN(c2ccc(C#N)c3ncccc23)C[C@H](CN2CCN(c3ncc(C#N)c(N4CCNCC4)n3)CC2)O1` [Example 51, 5-[(2S,6R)-2-[[4-(5-cyano-4-piperazin-1-yl-pyrimidin-2-yl)piperazin-1-yl]methyl]-6-methyl-morpholin-4-yl]quinoline-8-carbonitrile]: the IC50 worked out at 121 nM.
For `Cc1cc(N2CCN(C[C@H]3CN(c4ccc(C#N)c5ncccc45)C[C@@H](C)O3)CC2)nc(N2C[C@@H](N)[C@@H](F)C2)n1` [Example 55, 5-[(2S,6R)-2-[[4-[2-[(3R,4S)-3-amino-4-fluoro-pyrrolidin-1-yl]-6-methyl-pyrimidin-4-yl]piperazin-1-yl]methyl]-6-methyl-morpholin-4-yl]quinoline-8-carbonitrile], the IC50 was 32 nM.
As to `Cc1cc(N2CCN(C[C@H]3CN(c4ccc(C#N)c5ncccc45)C[C@@H](C)O3)CC2)nc(N2CCOCC(N)C2)n1` (stereo partly drawn) [Example 56, 5-[(2S,6R)-2-[[4-[2-(6-amino-1,4-oxazepan-4-yl)-6-methyl-pyrimidin-4-yl]piperazin-1-yl]methyl]-6-methyl-morpholin-4-yl]quinoline-8-carbonitrile], the IC50 amounted to 34 nM.
Consider `Cc1cc(N2CCN(C[C@H]3CN(c4ccc(C#N)c5ncccc45)C[C@@H](C)O3)CC2)nc(NC2CNCC2C#N)n1` (stereo partly drawn) [Example 57, 5-[(2S,6R)-2-[[4-[2-[(4-cyanopyrrolidin-3-yl)amino]-6-methyl-pyrimidin-4-yl]piperazin-1-yl]methyl]-6-methyl-morpholin-4-yl]quinoline-8-carbonitrile], for which the IC50 amounted to 38 nM.
Then `Cc1cc(N2CCN(C[C@H]3CN(c4ccc(C#N)c5ncccc45)C[C@@H](C)O3)CC2)nc(N2C[C@@H]3COC[C@@H](C2)N3)n1` [Example 58, 5-[(2R,6S)-2-methyl-6-[[4-[6-methyl-2-[(1R,5R)-3-oxa-7,9-diazabicyclo[3.3.1]nonan-7-yl]pyrimidin-4-yl]piperazin-1-yl]methyl]morpholin-4-yl]quinoline-8-carbonitrile], with 45 nM.
Then `CO[C@H]1CN(c2nc(C)cc(N3CCN(C[C@H]4CN(c5ccc(C#N)c6ncccc56)C[C@@H](C)O4)CC3)n2)C[C@H]1N` [Example 60, 5-[(2R,6S)-2-methyl-6-[[4-[6-methyl-2-[cis-3-amino-4-methoxy-pyrrolidin-1-yl]pyrimidin-4-yl]piperazin-1-yl]methyl]morpholin-4-yl]quinoline-8-carbonitrile], with 32 nM; and `Cc1cc(N2CCN(C[C@H]3CN(c4ccc(C#N)c5ncccc45)C[C@@H](C)O3)CC2)nc(N2CC3(CNCCO3)C2)n1` [Example 61, 5-[(2R,6S)-2-methyl-6-[[4-[6-methyl-2-(5-oxa-2,8-diazaspiro[3.5]nonan-2-yl)pyrimidin-4-yl]piperazin-1-yl]methyl]morpholin-4-yl]quinoline-8-carbonitrile], with 32 nM; and `C[C@@H]1CN(c2ccc(C#N)c3ncccc23)C[C@H](CN2CCN(c3cccc(C4CNCCO4)c3)CC2)O1` (stereo partly drawn) [Example 62, 5-[(2R,6S)-2-methyl-6-[[4-(3-morpholin-2-ylphenyl)piperazin-1-yl]methyl]-morpholin-4-yl]quinoline-8-carbonitrile], with 92 nM.
With `Cc1cc(N2CCN(C[C@H]3CN(c4ccc(C#N)c5ncccc45)C[C@@H](C)O3)CC2)nc(N2CC(N)C(F)(F)C2)n1` (stereo partly drawn) [Example 63, 5-[(2S,6R)-2-[[4-[2-(4-amino-3,3-difluoro-pyrrolidin-1-yl)-6-methyl-pyrimidin-4-yl]piperazin-1-yl]methyl]-6-methyl-morpholin-4-yl]quinoline-8-carbonitrile] the figure was 246 nM.
With `Cc1cc(N2CCN(C[C@H]3CN(c4ccc(C#N)c5nccnc45)C[C@@H](C)O3)CC2)nc(N2CCNCC2)n1` [Example 64, 8-[(2R,6S)-2-methyl-6-[[4-(6-methyl-2-piperazin-1-yl-pyrimidin-4-yl)piperazin-1-yl]methyl]morpholin-4-yl]quinoxaline-5-carbonitrile], the IC50 came out at 35 nM.
Regarding `Cc1cc(N2CCN(C[C@H]3CN(c4ccc(C(F)(F)F)c5nccnc45)C[C@@H](C)O3)CC2)nc(N2CCNCC2)n1` [Example 65, (2R,6S)-2-methyl-6-[[4-(6-methyl-2-piperazin-1-yl-pyrimidin-4-yl)piperazin-1-yl]methyl]-4-[8-(trifluoromethyl)quinoxalin-5-yl]morpholine], the IC50 stood at 129 nM.
Regarding `Cc1cc(N2CCN(C[C@H]3CN(c4ccc(C#N)c5ncccc45)C[C@@H](C)O3)CC2)nc(N2CCNCC(O)C2)n1` (stereo partly drawn) [Example 66, 5-[(2S,6R)-2-[[4-[2-(6-hydroxy-1,4-diazepan-1-yl)-6-methyl-pyrimidin-4-yl]piperazin-1-yl]methyl]-6-methyl-morpholin-4-yl]quinoline-8-carbonitrile], the IC50 was 32 nM.
With `Cc1cc(N2CCN(C[C@H]3CN(c4ccc(C#N)n5ncc(F)c45)C[C@@H](C)O3)CC2)nc(N2CCNCC2)n1` [Example 67, 3-Fluoro-4-[(2R,6S)-2-methyl-6-[[4-(6-methyl-2-piperazin-1-yl-pyrimidin-4-yl)piperazin-1-yl]methyl]morpholin-4-yl]pyrazolo[1,5-a]pyridine-7-carbonitrile] the figure was 81 nM; with `Cc1cc(N2CCNCC2)nc(N2CCN(C[C@H]3CN(c4ccc(C#N)c5ncccc45)C[C@@H](C)O3)CC2)n1` [Example 68, 5-[(2R,6S)-2-methyl-6-[[4-(4-methyl-6-piperazin-1-yl-pyrimidin-2-yl)piperazin-1-yl]methyl]morpholin-4-yl]quinoline-8-carbonitrile], 95 nM; with `C[C@@H]1CN(c2ccc(C#N)n3ncc(F)c23)C[C@H](CN2CCN(c3ccc(N[C@H]4CNC[C@H]4F)nc3)CC2)O1` [Example 167, 3-fluoro-4-[(2S,6R)-2-[[4-[6-[[(3S,4R)-4-fluoropyrrolidin-3-yl]amino]-3-pyridyl]piperazin-1-yl]methyl]-6-methyl-morpholin-4-yl]pyrazolo[1,5-a]pyridine-7-carbonitrile], 46 nM.
